Key:
[1] = test system: MCF-7 cells; assay: MTT anti-proliferative assay, MCF-7; format: cell-based; conditions: Homo sapiens, MCF7, 48 h, means ± SD of three experiments
Protocol: (§1) A series of novel enmein-type diterpenoid derivatives, 5a–m, were synthesized by introducing a side chain containing a carbamate moiety at the C-6 position of compound 4. The anticancer activities of 5a–m were tested against three human cancer cell lines and one human normal cell line by MTT assay.
(§2) Human non-small cell lung cancer cell lines (A549), human liver cancer cell lines (HepG2), human breast cancer cell lines (MCF-7), and human normal cell lines (L-02) were purchased from the cell bank of the Chinese Academy of Sciences. All cells were placed in RPMI-1640 medium (added 10% fetal bovine serum, […]) and cultured in an aseptic environment with 5% CO2 at 37 °C.
(§3) All derivatives were evaluated for their anti-proliferative activities against three cancer cell lines and one normal cell line by MTT assay. The cells in the logarithmic growth phase were inoculated into 96-well plates (3 × 10^3 cells/well) and incubated for 48 h in a sterile environment with 5% CO2 at 37 °C to make them attach via cell adhesion; then, the cells were co-incubated with target compounds for 48 h. After that, MTT solution (10 µL/well) was added to the cell culture medium to continue incubation for 4 h, following which the medium was replaced with DMSO (150 µL/well). The absorbance values at 490 nm were determined using an enzyme meter (Safire 2, Tecan, Männedorf, Switzerland) and further converted to half-inhibitory concentration values of these compounds.

[2] = test system: HepG2 cells; assay: MTT anti-proliferative assay, HepG2; format: cell-based, human; conditions: for IC50: Homo sapiens, HepG2, MTT, 48 h, means ± SD of three experiments; for anticancer activity in words, HepG2: HepG2 cells
Protocol: as §1, §2, §3

[3] = test system: L-02 cells; assay: MTT anti-proliferative assay, normal L-02 cells; format: cell-based; conditions: means ± SD of three experiments
Protocol: as §1, §2, §3

[4] = test system: A549 cells; assay: MTT anti-proliferative assay, A549; format: cell-based, human; conditions: for IC50: Homo sapiens, A549, MTT, 48 h, means ± SD of three experiments
Protocol: as §1, §2, §3

| IC50 [1] [µM] | IC50 [2] [µM] | IC50 [4] [µM] | Structure (SMILES) | IC50 ([3]; Homo sapiens, L02, 48 h) [µM] | IC50 ([3]; L02, human normal cells, 48 h) [µM] | anticancer activity in words, HepG2 [2] | fold better than parental compound 4 (A549 IC50) ([4]; A549 cells) [fold] |
| --- | --- | --- | --- | --- | --- | --- | --- |
| 8.35 ± 1.96 | 12.8 ± 1.73 | 8.37 ± 1.53 | C=C1C(=O)C23C(=O)OC45CCC(C)(C)C6C(OC(=O)CCC(=O)NCc7ccc(OC)cc7)OCC64C2CCC1C3O5 (single isomer, unassigned; ent-6) [Compound 7c, ent-6β,14α-Dihydroxy-(1,7–1,14)-epoxy-7,15-dioxo-6,20-hemiketal-6,7-seco-16-kaurene-6β-yl 4-((4-meth0xybenzyl)amino)-4-oxobutanoate] | 34.4 ± 4.37 | – | – | – |
| 8.2 ± 1.21 | 8.61 ± 1.14 | 7.38 ± 0.96 | C=C1C(=O)C23C(=O)OC45CCC(C)(C)C6C(OC(=O)CCC(=O)NCc7ccc(Cl)cc7)OCC64C2CCC1C3O5 (single isomer, unassigned; ent-6) [Compound 7f, ent-6β,14α-Dihydroxy-(1,7–1,14)-epoxy-7,15-dioxo-6,20-hemiketal-6,7-seco-16-kaurene-6β-yl 4-((4-chlorobenzyl)amino)-4-oxobutanoate] | > 50 | – | low micro-molar-level anticancer activities | – |
| 13 ± 1.52 | 8.78 ± 1.46 | 8.6 ± 2.65 | C=C1C(=O)C23C(=O)OC45CCC(C)(C)C6C(OC(=O)CCC(=O)NCc7ccc(Br)cc7)OCC64C2CCC1C3O5 (single isomer, unassigned; ent-6) [Compound 7g, ent-6β,14α-Dihydroxy-(1,7–1,14)-epoxy-7,15-dioxo-6,20-hemiketal-6,7-seco-16-kaurene-6β-yl 4-((4-bromobenzyl)amino)-4-oxobutanoate] | > 50 | – | low micro-molar-level anticancer activities | – |
| 24 ± 2.55 | 20.2 ± 1.33 | 18.4 ± 1.13 | C=C1C(=O)C23C(=O)OC45CCC(C)(C)C6C(OC(=O)N7CCCCCC7)OCC64C2CCC1C3O5 (single isomer, unassigned; ent-6) [Compound 5h, ent-6β,14α-Dihydroxy-(1,7–1,14)-epoxy-7,15-dioxo-6,20-hemiketal-6,7-seco-16-kaurene-6β-yl azepane-1-carboxylate] | > 50 | – | – | – |
| 7.64 ± 2.52 | 11.5 ± 1.58 | 6.41 ± 1.9 | C=C1C(=O)C23C(=O)OC45CCC(C)(C)C6C(OC(=O)CCC(=O)NCc7ccc(C(C)(C)C)cc7)OCC64C2CCC1C3O5 (single isomer, unassigned; ent-6) [Compound 7d, ent-6β,14α-Dihydroxy-(1,7–1,14)-epoxy-7,15-dioxo-6,20-hemiketal-6,7-seco-16-kaurene-6β-yl 4-((4-(tert-butyl)benz-yl)amino)-4-oxobutanoate] | 35.7 ± 2.66 | – | – | – |
| 30.7 ± 1.16 | 17.1 ± 1.39 | 14.7 ± 1.54 | C=C1C(=O)C23C(=O)OC45CCC(C)(C)C6C(OC(=O)N(C)C)OCC64C2CCC1C3O5 (single isomer, unassigned; ent-6) [Compound 5a, ent-6β,14α-Dihydroxy-(1,7–1,14)-epoxy-7,15-dioxo-6,20-hemiketal-6,7-seco-16-kaurene-6β-yl dimethylcarbamate] | > 50 | – | – | – |
| 25.1 ± 3.34 | 23.7 ± 3.4 | 14.4 ± 1.42 | C=C1C(=O)C23C(=O)OC45CCC(C)(C)C6C(OC(=O)N7CCOCC7)OCC64C2CCC1C3O5 (single isomer, unassigned; ent-6) [Compound 5i, ent-6β,14α-Dihydroxy-(1,7–1,14)-epoxy-7,15-dioxo-6,20-hemiketal-6,7-seco-16-kaurene-6β-yl bmorpholine-4-carboxylate] | 38.1 ± 2.82 | – | – | – |
| 12.8 ± 1.64 | 10.5 ± 1.68 | 7.48 ± 1.31 | C=C1C(=O)C23C(=O)OC45CCC(C)(C)C6C(OC(=O)CCC(=O)NCc7ccc(C)cc7)OCC64C2CCC1C3O5 (single isomer, unassigned; ent-6) [Compound 7b, ent-6β,14α-Dihydroxy-(1,7–1,14)-epoxy-7,15-dioxo-6,20-hemiketal-6,7-seco-16-kaurene-6β-yl 4-((4-methylbenzyl)amino)-4-oxobutanoate] | > 50 | – | – | – |
| 22.8 ± 2.13 | 21.1 ± 2.5 | 15.3 ± 2.4 | C=C1C(=O)C23C(=O)OC45CCC(C)(C)C6C(OC(=O)N7CCCCC7)OCC64C2CCC1C3O5 (single isomer, unassigned; ent-6) [Compound 5g, ent-6β,14α-Dihydroxy-(1,7–1,14)-epoxy-7,15-dioxo-6,20-hemiketal-6,7-seco-16-kaurene-6β-yl piperidine-1-carboxylate] | > 50 | – | – | – |

Continued, compound first:

| Structure (SMILES) | IC50 [1] [µM] | IC50 [2] [µM] | IC50 [4] [µM] | IC50 ([3]; Homo sapiens, L02, 48 h) [µM] | IC50 ([3]; L02, human normal cells, 48 h) [µM] | anticancer activity in words, HepG2 [2] | fold better than parental compound 4 (A549 IC50) ([4]; A549 cells) [fold] |
| --- | --- | --- | --- | --- | --- | --- | --- |
| C=C1C(=O)C23C(=O)OC45CCC(C)(C)C6C(OC(=O)CCC(=O)NCc7ccccc7)OCC64C2CCC1C3O5 (single isomer, unassigned; ent-6) [Compound 7a, ent-6β,14α-Dihydroxy-(1,7–1,14)-epoxy-7,15-dioxo-6,20-hemiketal-6,7-seco-16-kaurene-6β-yl 4-(benzylamino)-4-oxobutanoate] | 10.8 ± 1.65 | 13.8 ± 2.19 | 10.2 ± 1.1 | – | > 50 | – | – |
| C=C1C(=O)C23C(=O)OC45CCC(C)(C)C6C(OC(=O)N(c7ccccc7)c7ccccc7)OCC64C2CCC1C3O5 (single isomer, unassigned; ent-6) [Compound 5j, ent-6β,14α-Dihydroxy-(1,7–1,14)-epoxy-7,15-dioxo-6,20-hemiketal-6,7-seco-16-kaurene-6β-yl diphenylcarbamate] | 32.8 ± 2.95 | 34.1 ± 3.52 | 23.3 ± 2.25 | > 50 | – | – | – |
| C=C1C(=O)C23C(=O)OC45CCC(C)(C)C6C(OC(=O)CCN7C(=O)c8ccccc8C7=O)OCC64C2CCC1C3O5 (single isomer, unassigned; ent-6) [Compound 5m, ent-6β,14α-Dihydroxy-(1,7–1,14)-epoxy-7,15-dioxo-6,20-hemiketal-6,7-seco-16-kaurene-6β-yl 3-(1,3-dioxoisoindolin-2-yl) propanoate] | 12.3 ± 1.11 | 10.9 ± 1.25 | 6.85 ± 1.68 | 32.5 ± 1.62 | – | – | 3.48 |
| CC(=O)O[C@H]1C(=O)[C@@]2(C)[C@H]([C@H](OC(=O)c3ccccc3)[C@]3(O)C[C@H](OC(=O)[C@H](O)[C@@H](NC(=O)c4ccccc4)c4ccccc4)C(C)=C1C3(C)C)[C@]1(OC(C)=O)CO[C@@H]1C[C@@H]2O [Taxol, reference compound] | 5.15 ± 0.8 | 6.6 ± 1.61 | 4.21 ± 0.73 | 8.31 ± 1.82 | – | – | – |
| C=C1C(=O)C23C(=O)OC45CCC(C)(C)C6C(OC(=O)N7CCCC7)OCC64C2CCC1C3O5 (single isomer, unassigned; ent-6) [Compound 5f, ent-6β,14α-Dihydroxy-(1,7–1,14)-epoxy-7,15-dioxo-6,20-hemiketal-6,7-seco-16-kaurene-6β-yl pyrrolidine-1-carboxylate] | 20.7 ± 1.2 | 18.3 ± 1.36 | 13.4 ± 2.19 | 45.9 ± 2.3 | – | – | – |
| C=C1C(=O)C23C(=O)OC45CCC(C)(C)C6C(OC(=O)CCC(=O)NCc7ccc(F)cc7)OCC64C2CCC1C3O5 (single isomer, unassigned; ent-6) [Compound 7e, ent-6β,14α-Dihydroxy-(1,7–1,14)-epoxy-7,15-dioxo-6,20-hemiketal-6,7-seco-16-kaurene-6β-yl 4-((4-fluorobenzyl)amino)-4-oxobutanoate] | 9.85 ± 1.53 | 11.6 ± 1.34 | 7.12 ± 1.52 | > 50 | – | – | – |
| C=C1C(=O)C23C(=O)OC45CCC(C)(C)C6C(OC(=O)N(C)CC)OCC64C2CCC1C3O5 (single isomer, unassigned; ent-6) [Compound 5c, ent-6β,14α-Dihydroxy-(1,7–1,14)-epoxy-7,15-dioxo-6,20-hemiketal-6,7-seco-16-kaurene-6β-yl ethyl(methyl)carbamate] | 21.9 ± 2.72 | 22.5 ± 3.42 | 20.2 ± 1.46 | > 50 | – | – | – |
| C=C1C(=O)[C@]23[C@H](O)[C@H]1CC[C@H]2[C@@]12CO[C@]3(O)[C@@H](O)[C@@H]1C(C)(C)CC[C@@H]2O [Oridonin, reference compound] | 18.5 ± 1.37 | 22.6 ± 1.2 | 21.1 ± 1.58 | 23.6 ± 1.65 | – | – | – |
| C=C1C(=O)C23C(=O)OC45CCC(C)(C)C6C(OC(=O)N(CCCl)CCCl)OCC64C2CCC1C3O5 (single isomer, unassigned; ent-6) [Compound 5d, ent-6β,14α-Dihydroxy-(1,7–1,14)-epoxy-7,15-dioxo-6,20-hemiketal-6,7-seco-16-kaurene-6β-yl bis(2-chloroethyl) carbamate] | 15.6 ± 1.61 | 11 ± 1.45 | 8.76 ± 1.56 | – | 30.4 ± 3.44 | – | – |
| C=C1C(=O)C23C(=O)OC45CCC(C)(C)C6C(O)OCC64C2CCC1C3O5 (single isomer, unassigned; ent-6) [Compound 4, Ent-6β,14α-Dihydroxy-(1,7–1,14)-epoxy-7,15-dioxo-6,20-hemiketal-6,7-seco-16-kaurene] | 25.8 ± 1.14 | 27.4 ± 0.83 | 23.8 ± 1.86 | 30.2 ± 1.58 | – | – | – |
